# Results reported in PubChem BioAssay (NCI).
#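 Abbreviation: GI50, concentration required for 50% inhibition of growth. At the TGI there is no net growth.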
# Tests used:
# Test in all cases: growth of human tumour cells (NCI), 384-well format
# [1] = test system: RXF 393 renal
# [2] = test system: MDA-MB-435 melanoma
# [3] = test system: NCI/ADR-RES ovarian
# [4] = test system: SF-295 CNS
# [5] = test system: TK-10 renal
# [6] = test system: M14 melanoma
# [7] = test system: HT29 colon
# [8] = test system: A498 renal
# [9] = test system: HL-60(TB) leukemia
# [10] = test system: SNB-19 CNS
# [11] = test system: UACC-62 melanoma
# [12] = test system: CAKI-1 renal
# [13] = test system: HCC-2998 colon
# [14] = test system: SK-OV-3 ovarian
# [15] = test system: CCRF-CEM leukemia
# [16] = test system: NCI-H522 lung
# [17] = test system: DU-145 prostate
# [18] = test system: MOLT-4 leukemia
# [19] = test system: PC-3 prostate
# [20] = test system: SK-MEL-5 melanoma
# [21] = test system: MALME-3M melanoma
# [22] = test system: NCI-H460 NSCLC
# [23] = test system: U251 glioblastoma
# [24] = test system: UACC-257 melanoma
# [25] = test system: UO-31 renal
# [26] = test system: SNB-75 CNS
# [27] = test system: NCI-H226 lung
# [28] = test system: NCI-H23 lung
# [29] = test system: NCI-H322M lung
# [30] = test system: RPMI-8226 leukemia
# [31] = test system: OVCAR-4 ovarian
# [32] = test system: 786-0 renal
# [33] = test system: SR leukemia
# [34] = test system: HOP-92 NSCLC
# [35] = test system: SK-MEL-2 melanoma
# [36] = test system: OVCAR-8 ovarian
# [37] = test system: A549 NSCLC
# [38] = test system: KM12 colon
# [39] = test system: HCT-116 colon
# [40] = test system: HCT-15 colon
# [41] = test system: MDA-MB-231 breast
# [42] = test system: LOX IMVI melanoma
# [43] = test system: IGROV1 ovarian
# [44] = test system: K-562 leukemia
# [45] = test system: SF-539 CNS
# [46] = test system: MDA-MB-468 breast
# [47] = test system: SK-MEL-28 melanoma
# [48] = test system: SW-620 colon
# [49] = test system: EKVX NSCLC
# [50] = test system: OVCAR-5 ovarian
# [51] = test system: COLO 205 colon
# [52] = test system: T-47D breast
# [53] = test system: SF-268 CNS
# [54] = test system: ACHN renal
# [55] = test system: MCF7 breast
# [56] = test system: HOP-62 NSCLC
# [57] = test system: OVCAR-3 ovarian
# [58] = test system: BT-549 breast
# [59] = test system: SN12C renal
# [60] = test system: HS 578T breast
smiles,measurement,setting,value
COc1ccc(Cl)c(Nc2nc3ccccc3nc2NS(=O)(=O)c2cccc(NC(=O)C(C)(C)N)c2)c1,GI50,[1],2.38 µM
same,TGI,[1],8.35 µM
same,GI50,[2],12.5 µM
same,TGI,[2],25.1 µM
same,GI50,[3],11 µM
same,TGI,[3],23.2 µM
same,GI50,[4],5.29 µM
same,TGI,[4],17.9 µM
same,GI50,[5],5.77 µM
same,TGI,[5],19.5 µM
same,GI50,[6],12.5 µM
same,TGI,[6],25.1 µM
same,GI50,[7],10.2 µM
same,TGI,[7],21.9 µM
same,GI50,[8],6.64 µM
same,TGI,[8],19.5 µM
same,GI50,[9],2.69 µM
same,TGI,[9],10.7 µM
same,GI50,[10],12.2 µM
same,TGI,[10],24.8 µM
same,GI50,[11],6.72 µM
same,TGI,[11],19.6 µM
same,GI50,[12],7.59 µM
same,TGI,[12],21.7 µM
same,GI50,[13],8.3 µM
same,TGI,[13],22.6 µM
same,GI50,[14],5.4 µM
same,TGI,[14],19.3 µM
same,GI50,[15],12 µM
same,TGI,[15],24.4 µM
same,GI50,[16],9.12 µM
same,TGI,[16],21.6 µM
same,GI50,[17],11.4 µM
same,TGI,[17],24.4 µM
same,GI50,[18],2.37 µM
same,TGI,[18],7.66 µM
same,GI50,[19],4.02 µM
same,TGI,[19],16.3 µM
same,GI50,[20],12.8 µM
same,TGI,[20],25.5 µM
same,GI50,[21],9.58 µM
same,TGI,[21],21.6 µM
same,GI50,[22],5.5 µM
same,TGI,[22],18.5 µM
same,GI50,[23],11.8 µM
same,TGI,[23],24.3 µM
same,GI50,[24],11.6 µM
same,TGI,[24],24.2 µM
same,GI50,[25],2.73 µM
same,TGI,[25],13.3 µM
same,GI50,[26],2.43 µM
same,TGI,[26],10.1 µM
same,GI50,[27],10.9 µM
same,TGI,[27],22.9 µM
same,GI50,[28],4.73 µM
same,TGI,[28],20.1 µM
same,GI50,[29],10.2 µM
same,TGI,[29],23.4 µM
same,GI50,[30],3.2 µM
same,TGI,[30],11.4 µM
same,GI50,[31],10.2 µM
same,TGI,[31],24.4 µM
same,GI50,[32],9.77 µM
same,TGI,[32],22.6 µM
same,GI50,[33],8.2 µM
same,TGI,[33],21.6 µM
same,GI50,[34],0.977 µM
same,TGI,[34],5.87 µM
same,GI50,[35],11.7 µM
same,TGI,[35],24.6 µM
same,GI50,[36],12.2 µM
same,TGI,[36],24.9 µM
same,GI50,[37],10.5 µM
same,TGI,[37],22.4 µM
same,GI50,[38],13.7 µM
same,TGI,[38],26.7 µM
same,GI50,[39],14.7 µM
same,TGI,[39],28 µM
same,GI50,[40],12.3 µM
same,TGI,[40],25 µM
same,GI50,[41],14.3 µM
same,TGI,[41],27.5 µM
same,GI50,[42],12.8 µM
same,TGI,[42],25.4 µM
same,GI50,[43],1.38 µM
same,TGI,[43],3.79 µM
same,GI50,[44],13.6 µM
same,TGI,[44],26.6 µM
same,GI50,[45],8.54 µM
same,TGI,[45],21.1 µM
same,GI50,[46],1.84 µM
same,TGI,[46],10.1 µM
same,GI50,[47],3.91 µM
same,TGI,[47],16.7 µM
same,GI50,[48],10.2 µM
same,TGI,[48],22.9 µM
same,GI50,[49],4.81 µM
same,TGI,[49],19.5 µM
same,GI50,[50],9.79 µM
same,TGI,[50],22.3 µM
same,GI50,[51],11.3 µM
same,TGI,[51],23.5 µM
same,GI50,[52],1.57 µM
same,TGI,[52],7.84 µM
same,GI50,[53],10.9 µM
same,TGI,[53],22.9 µM
same,GI50,[54],10.2 µM
same,TGI,[54],23.3 µM
same,GI50,[55],2.76 µM
same,TGI,[55],14.5 µM
same,GI50,[56],13.6 µM
same,TGI,[56],26.6 µM
same,GI50,[57],3.11 µM
same,TGI,[57],15.5 µM
same,GI50,[58],3.17 µM
same,TGI,[58],14.1 µM
same,GI50,[59],8.86 µM
same,TGI,[59],21.3 µM
NC(=O)c1ccc(-c2nc(-c3ccc4c(c3)OCO4)c(-c3ccccn3)[nH]2)cc1,GI50,[1],11.9 µM
same,TGI,[1],26.8 µM
same,GI50,[2],39.6 µM
same,TGI,[2],> 100 µM
same,GI50,[3],16.4 µM
same,TGI,[3],33.3 µM
same,GI50,[4],20.2 µM
same,TGI,[4],43.3 µM
same,GI50,[5],24.6 µM
same,TGI,[5],60.4 µM
same,GI50,[6],24.4 µM
same,TGI,[6],83.2 µM
same,GI50,[7],19.9 µM
same,TGI,[7],44.9 µM
same,GI50,[8],23.4 µM
same,TGI,[8],56.3 µM
same,GI50,[60],25.3 µM
same,TGI,[60],60.1 µM
same,GI50,[9],17.8 µM
same,TGI,[9],31.7 µM
same,GI50,[10],40.1 µM
same,TGI,[10],> 100 µM
same,GI50,[12],28.4 µM
same,TGI,[12],72.9 µM
same,GI50,[13],16.7 µM
same,TGI,[13],36.3 µM
same,GI50,[14],24.3 µM
same,TGI,[14],64.9 µM
same,GI50,[15],18.1 µM
same,TGI,[15],38.7 µM
same,GI50,[16],24.2 µM
same,TGI,[16],46.1 µM
same,GI50,[17],23.7 µM
same,TGI,[17],52.1 µM
same,GI50,[18],16.5 µM
same,TGI,[18],30.3 µM
same,GI50,[19],27.2 µM
same,TGI,[19],> 100 µM
same,GI50,[20],7.13 µM
same,TGI,[20],19.5 µM
same,GI50,[21],29.7 µM
same,TGI,[21],52.4 µM
same,GI50,[22],14.4 µM
same,TGI,[22],28.1 µM
same,GI50,[23],35.2 µM
same,TGI,[23],> 100 µM
same,GI50,[24],22.4 µM
same,TGI,[24],43 µM
same,GI50,[25],42.6 µM
same,TGI,[25],> 100 µM
same,GI50,[26],42.4 µM
same,TGI,[26],> 100 µM
same,GI50,[27],17.2 µM
same,TGI,[27],32.7 µM
same,GI50,[28],22 µM
same,TGI,[28],47.7 µM
same,GI50,[29],27.9 µM
same,TGI,[29],90.6 µM
same,GI50,[30],15.7 µM
same,TGI,[30],30.4 µM
same,GI50,[31],26.7 µM
same,TGI,[31],71.6 µM
same,GI50,[32],28 µM
same,TGI,[32],81.6 µM
same,GI50,[33],17.5 µM
same,TGI,[33],32.4 µM
same,GI50,[34],30.7 µM
same,TGI,[34],95.7 µM
same,GI50,[36],22.6 µM
same,TGI,[36],52.2 µM
same,GI50,[37],21.1 µM
same,TGI,[37],57.1 µM
same,GI50,[38],27 µM
same,TGI,[38],73.2 µM
same,GI50,[39],16.9 µM
same,TGI,[39],32.2 µM
same,GI50,[40],18.9 µM
same,TGI,[40],36 µM
same,GI50,[41],22.2 µM
same,TGI,[41],83 µM
same,GI50,[42],14.2 µM
same,TGI,[42],29.4 µM
same,GI50,[43],19.6 µM
same,TGI,[43],46.1 µM
same,GI50,[44],35.3 µM
same,TGI,[44],> 100 µM
same,GI50,[45],41.8 µM
same,TGI,[45],> 100 µM
same,GI50,[46],17.9 µM
same,TGI,[46],36.9 µM
same,GI50,[47],32.9 µM
same,TGI,[47],86.5 µM
same,GI50,[48],60.6 µM
same,TGI,[48],> 100 µM
same,GI50,[49],14.3 µM
same,TGI,[49],59.1 µM
same,GI50,[50],26.6 µM
same,TGI,[50],81.9 µM
same,GI50,[51],21.7 µM
same,TGI,[51],39.3 µM
same,GI50,[52],20.4 µM
same,TGI,[52],42.4 µM
same,GI50,[53],38 µM
same,TGI,[53],> 100 µM
same,GI50,[54],44.7 µM
same,TGI,[54],> 100 µM
same,GI50,[55],20.6 µM
same,TGI,[55],49.1 µM
same,GI50,[56],18.5 µM
same,TGI,[56],43 µM
same,GI50,[57],21.6 µM
same,TGI,[57],47.1 µM
same,GI50,[58],17.5 µM
same,TGI,[58],64.3 µM
same,GI50,[59],39.1 µM
same,TGI,[59],> 100 µM
